Starred links: 1 amine or outer side, 2 acyl side, 3 side chain; linkers in the order of their positions; H or OH if unused. Non-standard residues stand in square brackets, D forms with d. Residues, ends and D or L forms follow the SMILES beside them. Groups on a side chain read outwards from the residue. *: point of attachment. C20 diacid = O=C(O)CCCCCCCCCCCCCCCCCCC(=O)*; C18 diacid = O=C(O)CCCCCCCCCCCCCCCCC(=O)*; γGlu = O=C(O)[C@H](CCC(=O)[*:2])N[*:1]; αMeF = C[C@](N)(Cc1ccccc1)C(=O)O; AEEA = NCCOCCOCC(=O)O; Aib = CC(C)(N)C(=O)O
How the values were obtained:
[1] = molecular target: human glucagon receptor (hGCGR) (Homo sapiens, UniProt P47871); test: cAMP production (HTRF) in CHO cells expressing hGCGR; format: cell-based; set-up: expressed in transfected cells; details: cAMP, CHO cells, 0.1% BSA, geometric mean; read-out: hGluc-R EC50
Chain of human glucagon receptor (hGCGR) (P47871 26-477): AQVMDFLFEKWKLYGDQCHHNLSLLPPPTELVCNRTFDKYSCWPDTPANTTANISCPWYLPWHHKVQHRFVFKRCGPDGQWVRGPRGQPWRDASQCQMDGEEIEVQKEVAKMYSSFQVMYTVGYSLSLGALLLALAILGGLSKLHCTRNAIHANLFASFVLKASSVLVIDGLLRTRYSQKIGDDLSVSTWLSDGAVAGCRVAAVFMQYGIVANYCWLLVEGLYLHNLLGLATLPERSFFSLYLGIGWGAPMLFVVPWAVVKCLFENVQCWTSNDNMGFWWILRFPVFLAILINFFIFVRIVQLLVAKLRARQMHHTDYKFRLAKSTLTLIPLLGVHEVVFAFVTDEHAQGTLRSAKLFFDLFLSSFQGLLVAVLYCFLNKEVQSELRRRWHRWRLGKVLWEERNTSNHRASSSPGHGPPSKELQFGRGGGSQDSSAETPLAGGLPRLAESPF
Summary of the method: (§1)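 Read-out: HTRF cAMP (anti-cAMP cryptate donor, cAMP-d2 acceptor in conjugate/lysis buffer), converted to % Delta F and fitted by 4-parameter logistic for EC50. Cell densities were 1×10^5 cells/mL (hGLP-1R) or 2×10^5 cells/mL (hGCGR). Stimulation lasted 30 min at room temperature.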

[2] = molecular target: human GLP-1 receptor (hGLP-1R) (Homo sapiens, UniProt P43220); test: cAMP production (HTRF) in CHO cells expressing hGLP-1R; format: cell-based; set-up: expressed in transfected cells; details: for % Relative Potency Ratio: % GLP-1R activity relative to GLP-1 / % GlucR activity relative to glucagon; for EC50: cAMP, CHO cells, 0.1% BSA, geometric mean, read-out: hGLP-1R EC50
Chain of human GLP-1 receptor (hGLP-1R) (P43220 24-463): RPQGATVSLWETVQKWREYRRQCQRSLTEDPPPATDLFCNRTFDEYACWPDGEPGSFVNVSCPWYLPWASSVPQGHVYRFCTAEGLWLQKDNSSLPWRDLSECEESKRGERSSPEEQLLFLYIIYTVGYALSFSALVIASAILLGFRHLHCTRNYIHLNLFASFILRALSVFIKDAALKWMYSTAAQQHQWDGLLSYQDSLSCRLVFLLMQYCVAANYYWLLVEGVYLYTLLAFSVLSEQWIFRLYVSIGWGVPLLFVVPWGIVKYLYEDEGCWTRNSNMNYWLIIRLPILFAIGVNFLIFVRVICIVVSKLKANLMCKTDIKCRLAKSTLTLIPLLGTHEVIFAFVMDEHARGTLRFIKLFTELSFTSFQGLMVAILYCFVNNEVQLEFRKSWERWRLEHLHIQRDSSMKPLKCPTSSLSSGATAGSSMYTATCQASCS
Summary of the method: as §1

Structure (SMILES)	EC50 [1] [nM]	% Relative Potency Ratio [2]	EC50 [2] [nM]
CC[C@H](C)[C@H](NC(=O)[C@H](Cc1c[nH]c2ccccc12)NC(=O)[C@H](CCCCNC(=O)COCCOCCNC(=O)COCCOCCNC(=O)CC[C@H](NC(=O)CCCCCCCCCCCCCCCCCCC(=O)O)C(=O)O)NC(=O)[C@@H](NC(=O)[C@H](Cc1ccccc1)NC(=O)[C@H](CC(=O)O)NC(=O)[C@H](CCC(N)=O)NC(=O)[C@H](C)NC(=O)C(C)(C)NC(=O)[C@H](CCCNC(=N)N)NC(=O)[C@H](CO)NC(=O)[C@H](CC(=O)O)NC(=O)[C@H](CC(C)C)NC(=O)[C@](C)(Cc1ccccc1)NC(=O)[C@H](CCCCN)NC(=O)[C@H](CO)NC(=O)[C@@H](NC(=O)[C@H](CC(=O)O)NC(=O)[C@H](CO)NC(=O)[C@@H](NC(=O)[C@](C)(Cc1ccccc1)NC(=O)[C@H](CO)NC(=O)CNC(=O)[C@H](Cc1c[nH]cn1)NC(=O)C(C)(C)NC(=O)[C@@H](N)Cc1c[nH]cn1)[C@@H](C)O)C(C)C)C(C)C)C(=O)N[C@@H](C)C(=O)N[C@@H](CC(N)=O)C(=O)N[C@H](C(N)=O)[C@@H](C)O [Peptide 368, H(Aib)HGS(αMePhe)TSDVSK(αMePhe)LDSR(Aib)AQDFVK(O2OC-O2OC-γE-C20diacid)24WIANT-amide] (H-H[Aib]HGS[αMeF]TSDVSK[αMeF]LDSR[Aib]AQDFVK([AEEA-AEEA-γGlu-C20 diacid])WIANT-NH2)	0.29	3.1	0.186
CC[C@H](C)[C@H](NC(=O)C(C)(C)NC(=O)[C@H](CCCCNC(=O)COCCOCCNC(=O)COCCOCCNC(=O)CC[C@H](NC(=O)CCCCCCCCCCCCCCCCCCC(=O)O)C(=O)O)NC(=O)[C@@H](NC(=O)[C@H](Cc1ccccc1)NC(=O)[C@H](CC(=O)O)NC(=O)[C@H](CCC(N)=O)NC(=O)[C@H](C)NC(=O)[C@H](C)NC(=O)[C@H](CCCNC(=N)N)NC(=O)[C@H](CO)NC(=O)[C@H](CC(=O)O)NC(=O)[C@H](CC(C)C)NC(=O)[C@](C)(Cc1ccccc1)NC(=O)[C@H](CCCCN)NC(=O)[C@H](CO)NC(=O)[C@@H](NC(=O)[C@H](CC(=O)O)NC(=O)[C@H](CO)NC(=O)[C@@H](NC(=O)[C@](C)(Cc1ccccc1)NC(=O)[C@H](CO)NC(=O)CNC(=O)[C@H](Cc1c[nH]cn1)NC(=O)C(C)(C)NC(=O)[C@@H](N)Cc1c[nH]cn1)[C@@H](C)O)C(C)C)C(C)C)C(=O)N[C@@H](C)C(=O)N[C@@H](CC(N)=O)C(=O)N[C@H](C(N)=O)[C@@H](C)O [Peptide 369] (H-H[Aib]HGS[αMeF]TSDVSK[αMeF]LDSRAAQDFVK([AEEA-AEEA-γGlu-C20 diacid])[Aib]IANT-NH2; N-terminus assumed)	0.202	3.8	0.104
CC[C@H](C)[C@H](NC(=O)[C@H](Cc1c[nH]c2ccccc12)NC(=O)[C@H](CCCCNC(=O)COCCOCCNC(=O)COCCOCCNC(=O)CC[C@H](NC(=O)CCCCCCCCCCCCCCCCC(=O)O)C(=O)O)NC(=O)[C@@H](NC(=O)[C@](C)(Cc1ccccc1)NC(=O)[C@H](CC(=O)O)NC(=O)[C@H](CCC(N)=O)NC(=O)[C@H](C)NC(=O)[C@H](C)NC(=O)[C@H](CCC(N)=O)NC(=O)[C@H](CO)NC(=O)[C@H](CC(=O)O)NC(=O)[C@H](CC(C)C)NC(=O)[C@](C)(Cc1ccccc1)NC(=O)[C@H](CCCCN)NC(=O)[C@H](CO)NC(=O)[C@@H](NC(=O)[C@H](CC(=O)O)NC(=O)[C@H](CO)NC(=O)[C@@H](NC(=O)[C@](C)(Cc1ccccc1)NC(=O)[C@H](CO)NC(=O)CNC(=O)[C@H](Cc1c[nH]cn1)NC(=O)C(C)(C)NC(=O)[C@@H](N)Cc1c[nH]cn1)[C@@H](C)O)C(C)C)C(C)C)C(=O)N[C@@H](C)C(=O)N[C@@H](CC(N)=O)C(=O)N[C@H](C(N)=O)[C@@H](C)O [Peptide 370] (H-H[Aib]HGS[αMeF]TSDVSK[αMeF]LDSQAAQD[αMeF]VK([AEEA-AEEA-γGlu-C18 diacid])WIANT-NH2; N-terminus assumed)	0.182	1.1	0.323
CC[C@H](C)[C@H](NC(=O)[C@H](Cc1c[nH]c2ccccc12)NC(=O)[C@H](CCCCNC(=O)COCCOCCNC(=O)COCCOCCNC(=O)CC[C@H](NC(=O)CC[C@H](NC(=O)CCCCCCCCCCCCCCCCC(=O)O)C(=O)O)C(=O)O)NC(=O)[C@@H](NC(=O)[C@](C)(Cc1ccccc1)NC(=O)[C@H](CC(=O)O)NC(=O)[C@H](CCC(N)=O)NC(=O)[C@H](C)NC(=O)[C@H](C)NC(=O)[C@H](CCCNC(=N)N)NC(=O)[C@H](CO)NC(=O)[C@H](CC(=O)O)NC(=O)[C@H](CC(C)C)NC(=O)[C@](C)(Cc1ccccc1)NC(=O)[C@H](CCCCN)NC(=O)[C@H](CO)NC(=O)[C@@H](NC(=O)[C@H](CC(=O)O)NC(=O)[C@H](CO)NC(=O)[C@@H](NC(=O)[C@](C)(Cc1ccccc1)NC(=O)[C@H](CO)NC(=O)CNC(=O)[C@H](Cc1c[nH]cn1)NC(=O)C(C)(C)NC(=O)[C@@H](N)Cc1c[nH]cn1)[C@@H](C)O)C(C)C)C(C)C)C(=O)N[C@@H](C)C(=O)N[C@@H](CC(N)=O)C(=O)N[C@H](C(N)=O)[C@@H](C)O [Peptide 371] (H-H[Aib]HGS[αMeF]TSDVSK[αMeF]LDSRAAQD[αMeF]VK([AEEA-AEEA-γGlu-γGlu-C18 diacid])WIANT-NH2; N-terminus assumed)	0.0872	0.9	0.191
CC[C@H](C)[C@H](NC(=O)C(C)(C)NC(=O)[C@H](CCCCNC(=O)COCCOCCNC(=O)COCCOCCNC(=O)CC[C@H](NC(=O)CC[C@H](NC(=O)CCCCCCCCCCCCCCCCC(=O)O)C(=O)O)C(=O)O)NC(=O)[C@@H](NC(=O)[C@](C)(Cc1ccccc1)NC(=O)[C@H](CC(=O)O)NC(=O)[C@H](CCC(N)=O)NC(=O)[C@H](C)NC(=O)[C@H](C)NC(=O)[C@H](CCCNC(=N)N)NC(=O)[C@H](CO)NC(=O)[C@H](CC(=O)O)NC(=O)[C@H](CC(C)C)NC(=O)[C@](C)(Cc1ccccc1)NC(=O)[C@H](CCCCN)NC(=O)[C@H](CO)NC(=O)[C@@H](NC(=O)[C@H](CC(=O)O)NC(=O)[C@H](CO)NC(=O)[C@@H](NC(=O)[C@](C)(Cc1ccccc1)NC(=O)[C@H](CO)NC(=O)CNC(=O)[C@H](Cc1c[nH]cn1)NC(=O)C(C)(C)NC(=O)[C@@H](N)Cc1c[nH]cn1)[C@@H](C)O)C(C)C)C(C)C)C(=O)N[C@@H](C)C(=O)N[C@@H](CC(N)=O)C(=O)N[C@H](C(=O)NCC(=O)NCC(N)=O)[C@@H](C)O [Peptide 373] (H-H[Aib]HGS[αMeF]TSDVSK[αMeF]LDSRAAQD[αMeF]VK([AEEA-AEEA-γGlu-γGlu-C18 diacid])[Aib]IANTGG-NH2; N-terminus assumed)	0.242	7.2	0.0667
CC[C@H](C)[C@H](NC(=O)[C@H](Cc1c[nH]c2ccccc12)NC(=O)[C@H](CCCCNC(=O)COCCOCCNC(=O)COCCOCCNC(=O)CC[C@H](NC(=O)CC[C@H](NC(=O)CCCCCCCCCCCCCCCCCCC(=O)O)C(=O)O)C(=O)O)NC(=O)[C@@H](NC(=O)[C@](C)(Cc1ccccc1)NC(=O)[C@H](CC(=O)O)NC(=O)[C@H](CCC(N)=O)NC(=O)[C@H](C)NC(=O)[C@H](C)NC(=O)[C@H](CCCNC(=N)N)NC(=O)[C@H](CO)NC(=O)[C@H](CC(=O)O)NC(=O)[C@H](CC(C)C)NC(=O)[C@](C)(Cc1ccccc1)NC(=O)[C@H](CCCCN)NC(=O)[C@H](CO)NC(=O)[C@@H](NC(=O)[C@H](CC(=O)O)NC(=O)[C@H](CO)NC(=O)[C@@H](NC(=O)[C@](C)(Cc1ccccc1)NC(=O)[C@H](CO)NC(=O)CNC(=O)[C@H](Cc1c[nH]cn1)NC(=O)C(C)(C)NC(=O)[C@@H](N)Cc1c[nH]cn1)[C@@H](C)O)C(C)C)C(C)C)C(=O)N[C@@H](C)C(=O)N[C@@H](CC(N)=O)C(=O)N[C@H](C(N)=O)[C@@H](C)O [Peptide 374] (H-H[Aib]HGS[αMeF]TSDVSK[αMeF]LDSRAAQD[αMeF]VK([AEEA-AEEA-γGlu-γGlu-C20 diacid])WIANT-NH2; N-terminus assumed)	0.26	1.2	0.434
CC[C@H](C)[C@H](NC(=O)[C@H](Cc1c[nH]c2ccccc12)NC(=O)[C@H](CCCCNC(=O)COCCOCCNC(=O)COCCOCCNC(=O)CC[C@H](NC(=O)CC[C@H](NC(=O)CCCCCCCCCCCCCCCCCCC(=O)O)C(=O)O)C(=O)O)NC(=O)[C@@H](NC(=O)[C@H](Cc1ccccc1)NC(=O)[C@H](CC(=O)O)NC(=O)[C@H](CCC(N)=O)NC(=O)[C@H](C)NC(=O)[C@H](C)NC(=O)[C@H](CCCNC(=N)N)NC(=O)[C@H](CO)NC(=O)[C@H](CC(=O)O)NC(=O)[C@H](CC(C)C)NC(=O)[C@](C)(Cc1ccccc1)NC(=O)[C@H](CCCCN)NC(=O)[C@H](CO)NC(=O)[C@@H](NC(=O)[C@H](CC(=O)O)NC(=O)[C@H](CO)NC(=O)[C@@H](NC(=O)[C@](C)(Cc1ccccc1)NC(=O)[C@H](CO)NC(=O)CNC(=O)[C@H](Cc1c[nH]cn1)NC(=O)C(C)(C)NC(=O)[C@@H](N)Cc1c[nH]cn1)[C@@H](C)O)C(C)C)C(C)C)C(=O)N[C@@H](C)C(=O)N[C@@H](CC(N)=O)C(=O)N[C@H](C(N)=O)[C@@H](C)O [Peptide 377] (H-H[Aib]HGS[αMeF]TSDVSK[αMeF]LDSRAAQDFVK([AEEA-AEEA-γGlu-γGlu-C20 diacid])WIANT-NH2; N-terminus assumed)	0.19	2.5	0.15

From US20250353891A1 (MEDIMMUNE LIMITED, priority 2022, published 2025)
